Our source for the melting point values is a melting point compilation (Tetko et al.; mined from patent text by program, amines drawn as free bases though some values may be those of a salt).

On to `Cc1cnnc2c(-c3ccc(F)cc3)c(-c3ccncc3)nn12`, for which the melting point lay within 202 to 204 °C.

`COC(=O)c1ccc(CN(C2CCCCC2C)S(=O)(=O)c2ccc(Cl)cc2)cc1` (centres undefined): the melting point fell in the range of 93 to 95 °C. The same measure for `Cc1nc(-c2ccc(OC(F)(F)F)cc2)ccc1CO`: 68 to 69 °C.

As for `O=C(Nc1c([N+](=O)[O-])cnn1-c1c(Cl)cc(C(F)(F)F)c(Cl)c1Cl)C(F)(F)F`, the melting point lay within 136 to 137 °C. `CS(=O)(=O)OCC1CSC2=C(O1)c1ccccc1C(=O)C2=O` (centres undefined) returned a melting point of 230 to 232 °C. Compound `CN1CCC[C@H]1Cn1nc(-c2c(-c3ccccc3)nn3ccccc23)ccc1=O` yielded a melting point of 114 to 117 °C. `CCCC(=O)Nc1n[nH]c2cc(Cl)c(-c3ccc(OCc4ccccc4)cc3)cc12` gave a melting point of 230 °C. Take `O=C1C(c2ccccc2)=C(c2ccccc2)C(=O)N1c1cccc(Cl)c1`: the melting point fell in the range of 144 to 145 °C. Take `NC(=O)/C=C/c1cnoc1-c1ccccc1`: the melting point was in the range of 194 to 196 °C.

`Cc1ccc2nc(Cl)c(C#N)c(Cl)c2c1`: the melting point worked out at 159 °C.

For `CCc1[nH]n(C2CCCC2)c2nc(Cc3ccc(OC)cc3)nc(=O)c1-2`, the melting point fell in the range of 172 to 173 °C.

Compound `OCC1OC(n2cnc3c(Cl)cc(Cl)nc32)C(O)C1O` (centres undefined) registered a melting point of 148 to 150 °C. Consider `CCOc1ccccc1-c1ccc(C(N)=O)c(=O)[nH]1`, for which the melting point lay in the range of 218 to 220 °C. `CCc1ccc2c(O)c(CO)cnc2c1` came in with a melting point of 180 to 182 °C. Compound `CC(Cn1ncc2ccc(O)cc21)O[Si](C)(C)C(C)(C)C` (centres undefined) displayed a melting point of 169 to 174 °C.

Turning to `Cc1c(C(=O)N2CCC[C@H](C)C2)[nH]c2ccccc12`, the melting point fell in the range of 198 to 200 °C. Next, `Cc1ccc(-c2nc(N)nc(N)n2)cn1`: over 260 °C. Turning to `CC(=O)NCCCn1cc(C2=C(c3cn(C)c4ccccc34)C(=O)NC2=O)c2ccccc21`, the melting point is 132 to 136 °C.

As to `CCCCc1c2ccccc2cc2ccccc12`, the melting point was found to be 49 °C. Compound `N#CCN1C(=O)COc2cc(F)ccc21` came in with a melting point of 111 to 113 °C.

For `CCCCCCCCCCCCCCCCOc1coc(C(=O)O)cc1=O`, the melting point was 126 to 130 °C. Compound `CC[C@@H](c1ccccc1)N(Cc1ccc(C(=O)N2CCC[C@@H]2CO)cc1)S(=O)(=O)c1ccc(Cl)cc1` registered a melting point of 120 to 121 °C. The same measure for `CNC(=O)c1c(-c2ccccc2)noc1CC(=O)c1ccccc1`: 125 to 128 °C.

For the compound `COc1ccc(Nc2nc(C)ccc2S(=O)(=O)c2ccc(OCc3ccccc3OC)cc2)c(C)c1`, the melting point was 70 to 72 °C.

Compound `O=C(O)c1cc(Cl)cc(OCc2ccccc2)c1` returned a melting point of 127 to 129 °C. Compound `CSCC[C@H](N)C(=O)NC(=O)C(CS)Cc1ccccc1` (some centres undefined) showed a melting point of 153 to 156 °C. `COc1ccc([C@@H]2CN(C)CC[C@@H]2NC(=O)c2ccc(Cl)c(Cl)c2)cc1OC` (relative stereo) registered a melting point of 134 to 135 °C. The same measure for `COc1cc2ccccc2cc1N(C)C(=O)N1CCN(c2cc(F)cc(F)c2)CC1`: 115 to 117 °C; for `NC(=NCC(F)(F)F)Nc1ccn(CCCCO)n1`: 105 to 106 °C.

In the case of `CCOP(=O)(C=Cc1ccc([N+](=O)[O-])cc1)OCC`, the melting point lay within 95 to 98 °C. `COc1ccc(N2CCN(c3ccc(F)cc3)CC2)c(-c2ccc(N(C)C)cc2)n1` had a melting point of 168 to 169 °C. `CC(C)(C)c1ccc(S(=O)(=O)N2c3ccccc3C[C@H]2C(=O)NCc2ccc(C(=O)O)cc2)cc1`: the melting point lay within 105 to 120 °C. Take `Cc1ccc2c(c1)C(=NNC(=N)N)CC2`: the melting point was over 250 °C. As to `COc1c(N)cccc1NC(=O)c1ccc(Br)cc1`, the melting point lay in the range of 111 to 112 °C.

`CCOC(=O)c1cc2cc(-c3ccccc3)ccc2nn1`: the melting point was in the range of 160 to 162 °C. `COc1cc2c(c3c1OC(C)(C)C3)C(c1cccc(NC(=O)c3ccc(CP(=O)(O)O)cc3)c1)=NC(C)(C)C2` gave a melting point of 237 to 241 °C. `Clc1cc2c(cc1Cl)Sc1cc(Cl)c(Cl)cc1S2` came in with a melting point of 250 to 255 °C. Compound `COc1ccc(CN(C)CCCCc2ccc(NC(=O)c3cccc4c(=O)cc(-c5ccccc5)[nH]c34)cc2)cc1OC` showed a melting point of 171 °C. In the case of `CCCC(=O)c1cc2c(=O)c(C(=O)OCC)cn(CC)c2cc1C`, the melting point was 145 to 146 °C. The compound `CCc1noc(-c2cn(-c3cc(OC)ccc3Cl)cn2)n1` showed a melting point of 67 to 69 °C. For the compound `N#Cc1ccc(NCc2cccc(F)c2)cc1`, the melting point is 63 to 64 °C.

The compound `CC(=O)NC1CN(CCN2CCOCC2)S(=O)(=O)c2sc(S(N)(=O)=O)cc21` (centres undefined) came in with a melting point of 110 to 112 °C. Next, `N#CC1=C(C2CCC2)Nc2n[nH]cc2C1c1cccc(C#N)c1Br` (centres undefined): 278 °C; `CC(C)(C)c1ncc([C@H]2[C@H](C(=O)O)C2(C)C)cn1` (relative stereo): 168 to 169 °C; `Nc1nc(N)c(-c2cc(Cl)ccc2Cl)c(C(F)(F)F)n1`: 215 to 217 °C. The compound `C=CC(=O)NCc1cc(C)c(OCC2CO2)c(C)c1` (centres undefined) gave a melting point of 90 to 92 °C. Next, `O=C1NCCc2c(-c3ccc(F)cc3F)[nH]c3cccc1c23`: 196 to 197 °C. The compound `Cc1cc(SC#N)c(C(C)(C)C)cc1NC(=O)OC(C)(C)C` displayed a melting point of 100 to 111 °C. For the compound `c1ccc(CN2CCC(Cc3nc4ccccc4[nH]3)CC2)cc1`, the melting point stood at 222 °C. For `CC(C)(CCO)c1ccc(C(=O)Nc2cn3cc(-n4ccnc4)ccc3n2)cc1`, the melting point was 225 to 227 °C. `Cn1nc(C(=O)NCc2ccc(Cl)cc2)c(=O)c2cc(CN3CCOCC3)ccc21` showed a melting point of 190 to 192 °C. `CN1CCC(c2c[nH]c3ccc(C4CN=CS4)cc23)CC1` (centres undefined) had a melting point of 158 to 160 °C. Next, `O=C(C=C1NC(c2ccc(F)cc2)=NC1(C(F)(F)F)C(F)(F)F)c1ccc(F)cc1`: 121 to 123 °C; `COCCOCCn1cc(C(=O)NCc2ccc(Cl)cc2)c(=O)c2cc(CN3CC[C@@H](O)C3)ccc21`: 106 to 109 °C.

As for `COC(=O)c1ccc(N2CCC(N(C)Cc3ccccc3)CC2)cc1`, the melting point lay within 103 to 104 °C. Turning to `CN1CCN(c2ccc(C(=O)N[C@H]3CC[C@H](CCN4CCN(c5nccc6c5OCC6)CC4)CC3)cc2)CC1`, the melting point is 236 °C. As for `CCCCCCn1c(-c2ccc(Cl)c(S(=O)(=O)N(C)C)c2)csc1=Nc1ccccc1`, the melting point is 86 °C.

The compound `CCOC(Cc1ccc(OCCN2CCSc3ccccc32)cc1)C(=O)NCc1ccccc1` (centres undefined) returned a melting point of 92 to 93 °C.

Compound `CCSC(=S)N1C(CO)Cc2c([nH]c3ccccc23)C1CC` (centres undefined) registered a melting point of 82 to 84 °C. `CCC(=O)NCC=C1CCc2ccc3nc(CCCCc4ccccc4)oc3c21` showed a melting point of 111 to 113 °C. Next, `CC(C)CNc1ccccc1CS(=O)c1nc2ncccc2[nH]1` (centres undefined): 116 °C.

Compound `O=C(O)c1ccc(CF)cc1` yielded a melting point of 192 to 194 °C. The same measure for `CCn1nc2c(N)nc3ccccc3c2c1CCCCN1C(=O)c2ccccc2C1=O`: 216 to 217 °C; for `CCCCCCCCCCC[C@@H]1CC(=O)CC(=O)O1`: 82 to 85 °C. Consider `Cc1ccc(-c2cc(C(F)F)nn2-c2ccc(S(N)(=O)=O)c(F)c2)cc1Cl`, for which the melting point was in the range of 160 to 161 °C. `O=C1CCCc2nc3ccccc3c(NCc3cccc(F)c3)c21` yielded a melting point of 156 to 157 °C. The same measure for `CNC(=O)c1ccn2nc(-c3ccccc3)c(-c3ccc(=O)n(C(C)C)n3)c2c1`: 225 to 226 °C. The same measure for `Cc1cc(C(F)(F)F)nn1CC(=O)N1CCC(c2nc(NC(=O)C3CCCc4ccccc43)cs2)CC1` (centres undefined): 179 to 181 °C; for `CC(C)CNC(=O)c1cccc(-c2ccnc3c(C(=O)c4cccs4)cnn23)c1`: 174 to 177 °C. With `O=C1CNc2ncc(-c3cccnc3)cc2N1Cc1c(Cl)cccc1Cl`, the melting point is over 200 °C. On to `CCCCCCCCCCN(O)C(=O)NCCCCCCC(=O)OC`, for which the melting point was in the range of 81 to 82 °C. `CC(C)c1cccc(C(C)C)c1OCC(N)=O` yielded a melting point of 136 to 138 °C. With `O=c1ccccn1[C@@H]1c2cc([N+](=O)[O-])ccc2OC(CF)(CF)[C@H]1O` (relative stereo), the melting point was in the range of 226 to 228 °C. The same measure for `COc1ccc(OC)c(-c2cc(F)cc3c2OC(CN)C3)c1` (centres undefined): 120 to 122 °C; for `Oc1nc(S)nc2c(-c3ccccc3)cnn12`: 251 °C; for `CNC(=O)Nc1cc(CNc2ncccc2C(=O)OC)ccn1`: 145 to 146 °C. Next, `Cc1nccc2c3ccc(OCc4cccc(F)c4)cc3n(Cc3cccc(F)c3)c12`: 148 °C; `O=C1CC(C(=O)O)(c2ccccc2)C1`: 133 to 135 °C; `CC(C)(OCCN1C(=O)c2ccccc2C1=O)OCCN1C(=O)c2ccccc2C1=O`: 139 to 141 °C. For the compound `COc1ccc2c(Oc3ccc(OCCN4CCCCC4)cc3)c(-c3cccc(O)c3)ccc2c1`, the melting point fell in the range of 170 to 171 °C.

Turning to `OC1CCN(CC(O)c2cc(-c3ccccc3)on2)CC1` (centres undefined), the melting point fell in the range of 117 to 119 °C. Next, `CC(C)=CCOc1ccc2c(=O)c(C)c(-c3ccccc3)oc2c1C(=O)C=Cc1ccc(Cl)cc1`: 130 to 133 °C. `N#Cc1cc(C(Cl)(Cl)Cl)ccc1Cl` came in with a melting point of 66 to 68 °C. For `Oc1ccc2c(c1)C[C@@H](NC[C@H](O)c1ccc(OCc3ccccc3)cc1)CC2`, the melting point lay in the range of 132 to 134 °C. `COc1ccc([N+](=O)[O-])nc1C` registered a melting point of 96 to 98 °C. The compound `CCN1CCC(=O)N(c2c(C)cccc2Cl)C1=S` registered a melting point of 141 to 144 °C.

The compound `COc1cc(C2CCN(C(=O)C(C)(C)N)CC2)ccc1Nc1ncc2ccc(-c3ccccc3N(C)S(C)(=O)=O)n2n1` came in with a melting point of 92 to 100 °C.

Regarding `CCOC(=O)/C=C/c1ccc(-c2nc3c(=O)n(CC4CCCCC4)c(=O)n(CC4CCCCC4)c3[nH]2)cc1`, the melting point was over 300 °C. The compound `C=Cn1cc(C(=O)OCC)c(=O)c2c(C)c(F)c(F)c(F)c21` came in with a melting point of 134 to 136 °C.
